Measurements as given in publication PMC5841289, “Natural polyphenols as sirtuin 6 modulators” (Scientific Reports, 2018).

Columns and labels:
GST-tagged SIRT6 [1] = target: T1, GST-tagged SIRT6 (Homo sapiens, UniProt Q8N6T7); assay: HPLC-based SIRT6 deacetylation assay with H3K9Ac peptide;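 as to all read-outs here: recombinant SIRT6 incubated 30 min at 37 °C with 500 µM NAD+ and H3K9Ac peptide, deacetylated H3K9 quantified by reversed-phase HPLC-MRM peak area versus DMSO control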; assay type: biochemical; settings: for Activation 100 µM: 40 µM H3K9Ac, fold per Fig. 2C legend
T1 construct: made in house; host or cells: E. coli BL21(DE3)-pRARE
T1 sequence (Q8N6T7 whole entry): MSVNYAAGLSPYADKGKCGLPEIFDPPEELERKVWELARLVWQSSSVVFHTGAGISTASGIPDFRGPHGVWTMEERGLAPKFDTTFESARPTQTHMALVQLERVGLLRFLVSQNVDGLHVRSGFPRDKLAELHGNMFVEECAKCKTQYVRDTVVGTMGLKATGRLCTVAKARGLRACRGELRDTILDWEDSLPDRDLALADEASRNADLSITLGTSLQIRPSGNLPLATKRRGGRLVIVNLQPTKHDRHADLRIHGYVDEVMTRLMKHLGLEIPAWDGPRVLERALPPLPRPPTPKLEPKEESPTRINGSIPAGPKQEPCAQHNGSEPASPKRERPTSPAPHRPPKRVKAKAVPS

GST-tagged SIRT6 [2] = target: T1, GST-tagged SIRT6; parameters: method as in PMID 26607666; settings: cited from earlier work
[3] = 100 µM compound, mean ± SD, n=3

Row | Compound | inhibition at 10 µM (GST-tagged SIRT6 [1]; 10 µM compound, mean ± SD, n=3) [%] | Activation 100 µM (GST-tagged SIRT6 [1]; [3]) [fold] | inhibition at 100 µM (GST-tagged SIRT6 [1]; [3]) [%] | Inhibition % 10 µM (GST-tagged SIRT6 [1]; 10 µM compound, mean ± SD, n=3) [%] | Inhibition % 100 µM (GST-tagged SIRT6 [1]; [3]) [%] | SIRT6 activation, in words (GST-tagged SIRT6 [1]) | Maximal activation (fold) (GST-tagged SIRT6 [1]; at saturating concentrations of compound) | SIRT6 inhibition, in words (GST-tagged SIRT6 [1]) | Modulation of SIRT6 deacetylation activity, in words (GST-tagged SIRT6 [2])
1 | Oc1cc(O)c2c(c1)O[C@H](c1ccc(O)c(O)c1)[C@@H](O)C2 [Compound 1, (+)-Catechin] | 17 ± 1.6 | 0.8 ± 0.02 | 26 | – | – | – | – | – | –
2 | Oc1cc(O)c2c(c1)O[C@@H](c1cc(O)c(O)c(O)c1)[C@H](O)C2 [Compound 3, (−)-Gallocatechin] | 17 ± 0.8 | 0.2 ± 0.01 | 23 ± 1 | – | – | – | – | weak inhibitor | –
3 | O=C1C[C@@H](c2ccc(O)cc2)Oc2cc(O)cc(O)c21 [Compound 10, Naringenin] | 8.3 ± 1.1 | 1.1 ± 0.05 | 23 ± 1.5 | – | – | – | – | did not improve the inhibitory activity towards SIRT6 compared to compound 1 | –
4 | O=C1C[C@@H](c2ccc(O)c(O)c2)Oc2cc(O)cc(O)c21 [Compound 11, Eriodictoyl] | – | 1.1 | – | 19 ± 2.2 | 27 ± 1.5 | – | – | did not improve the inhibitory activity towards SIRT6 compared to compound 1 | –
5 | O=c1cc(-c2ccc(O)cc2)oc2cc(O)cc(O)c12 [Compound 12, Apigenin] | – | 0.9 ± 0.01 | 1 ± 0.6 | – | – | inactive | – | – | –
6 | O=c1cc(-c2ccc(O)c(O)c2)oc2cc(O)cc(O)c12 [Compound 13, Luteolin] | 24 ± 1.8 | 1.2 ± 0.04 | 29 ± 0.3 | – | – | – | – | weak inhibitor | increase SIRT6 deacetylation activity at high concentrations, while also inhibiting deacetylation activity at low concentrations
7 | O=c1c(O)c(-c2ccc(O)cc2)oc2cc(O)cc(O)c12 [Compound 14, Kaempferol] | 40 ± 0.8 | 2.2 ± 0.1 | 24 ± 1.7 | – | – | – | 3.0 | inhibitors as well as activators depending on the concentration | –

Continued, in another order:

Row | inhibition at 10 µM (GST-tagged SIRT6 [1]; 10 µM compound, mean ± SD, n=3) [%] | Activation 100 µM (GST-tagged SIRT6 [1]; [3]) [fold] | inhibition at 100 µM (GST-tagged SIRT6 [1]; [3]) [%] | Inhibition % 10 µM (GST-tagged SIRT6 [1]; 10 µM compound, mean ± SD, n=3) [%] | Inhibition % 100 µM (GST-tagged SIRT6 [1]; [3]) [%] | SIRT6 activation, in words (GST-tagged SIRT6 [1]) | Maximal activation (fold) (GST-tagged SIRT6 [1]; at saturating concentrations of compound) | Compound | SIRT6 inhibition, in words (GST-tagged SIRT6 [1]) | Modulation of SIRT6 deacetylation activity, in words (GST-tagged SIRT6 [2])
8 | 25 ± 0.8 | 0.4 ± 0.04 | 54 | – | – | – | – | Oc1cc(O)c2c(c1)O[C@@H](c1ccc(O)c(O)c1)[C@H](O)C2 [Compound 2, (−)-Catechin] | – | –
9 | 62 ± 0.7 | 0.1 ± 0.03 | – | – | – | – | – | O=C(O[C@@H]1Cc2c(O)cc(O)cc2O[C@H]1c1ccc(O)c(O)c1)c1cc(O)c(O)c(O)c1 [Compound 4, (−)-Catechin gallate] | – | –
10 | 79 ± 0.5 | 0.01 ± 0.01 | – | – | – | – | – | O=C(O[C@@H]1Cc2c(O)cc(O)cc2O[C@H]1c1cc(O)c(O)c(O)c1)c1cc(O)c(O)c(O)c1 [Compound 5, (−)-Gallocatechin gallate] | – | –
11 | – | – | 10 ± 0.1 | – | – | – | – | Oc1cc(O)c2c(c1)O[C@H](c1ccc(O)c(O)c1)[C@H](O)C2 [Compound 6, (−)-Epicatechin] | – | –
12 | 15 ± 0.9 | 0.1 ± 0.01 | 60 ± 3.6 | – | – | – | – | O=C(O[C@@H]1Cc2c(O)cc(O)cc2O[C@@H]1c1ccc(O)c(O)c1)c1cc(O)c(O)c(O)c1 [Compound 8, (−)-Epicatechin gallate] | – | –
13 | 10 ± 1.4 | 0.8 ± 0.04 | 42 ± 1.9 | – | – | – | – | O=C(O[C@@H]1Cc2c(O)cc(O)cc2O[C@@H]1c1cc(O)c(O)c(O)c1)c1cc(O)c(O)c(O)c1 [Compound 9, (−)-Epigallocatechin gallate] | moderate inhibition | –
